In paper PMC5976239 (Journal of medicinal chemistry, 2017):
≈ marks a conversion by molar mass, not a printed value. Where two headings read alike, the source gives them in different places.

How the values were obtained:
[1] = test system: Candida albicans ATCC 10231 (A); test: MIC determination by in vitro antifungal assay; assay type: cell-based; conditions: ATCC10231, 48 h, read-out: MIC (MIC-0)
[2] = test system: Aspergillus nidulans ATCC 38163 (L); test: MIC determination against filamentous fungi; assay type: cell-based; conditions: ATCC38163, 48 h, read-out: MIC (MIC-0)
[3] = test system: Candida albicans ATCC 10231 (A); test: MIC determination in the presence and absence of FBS; assay type: cell-based; conditions: for MIC: Candida albicans, ATCC10231, read-out: MIC, Candida albicans ATCC 10231 (A) (no FBS); for antifungal activity in the presence of FBS (in words): strains A, J, and L, +10% FBS versus no FBS
[4] = test system: Aspergillus nidulans ATCC 38163 (L); test: as above; assay type: cell-based; conditions: ATCC38163, read-out: MIC, Aspergillus nidulans ATCC 38163 (L) (no FBS)
Hemolytic activity assay = assay type: cell-based; conditions: mouse, murine red blood cells (mRBCs)
HEK-293 = test: In vitro cytotoxicity assay; assay type: cell-based; conditions: 24 h, 18 and 20 at 7.8 µg/mL
A549 = test: In vitro cytotoxicity assay; assay type: cell-based; conditions: 24 h
BEAS-2B = test: In vitro cytotoxicity assay; assay type: cell-based; conditions: 24 h, 18 and 20 at 7.8 µg/mL
[5] = test system: C. albicans ATCC 64124 (strain B) biofilms; test: Biofilm assay
[6] = test system: C. albicans ATCC 64124(R) (B); test: MIC determination by in vitro antifungal assay; assay type: cell-based; conditions: Candida albicans, ATCC64124, 48 h
[7] = test system: C. albicans ATCC 90819(R) (D); test: MIC determination by in vitro antifungal assay; assay type: cell-based; conditions: Candida albicans, ATCC90819, 48 h
[8] = test system: C. albicans ATCC MYA-1003(R) (G); test: MIC determination by in vitro antifungal assay; assay type: cell-based; conditions: Candida albicans, 48 h, read-out: MIC (MIC-0)
[9] = test system: Aspergillus flavus ATCC MYA-3631 (K); test: MIC determination against filamentous fungi; assay type: cell-based; conditions: 48 h, read-out: MIC (MIC-0)
[10] = test system: C. albicans ATCC 10231 (strain A); test: Time-kill assay; assay type: cell-based, Candida albicans; conditions: 24 h, compound 20 at 4× MIC, VOR at 1× and 4× MIC
[11] = test system: C. parapsilosis ATCC 22019 (strain J); test: Time-kill assay; assay type: cell-based, Candida parapsilosis; conditions: 24 h, at up to 8× MIC
[12] = test system: C. albicans ATCC 10231 (strain A); test: Membrane permeabilization assay using propidium iodide staining; assay type: cell-based, Candida albicans; conditions: 1 h at 35 °C; 20 and 26 at 4 × MIC, KANB (C14) at 2 × MIC ([…]), FLC at 7.8 µg/mL
[13] = test system: C. albicans ATCC MYA-2876(S) (C); test: MIC determination by in vitro antifungal assay; assay type: cell-based; conditions: Candida albicans, 48 h
[14] = test system: C. albicans ATCC MYA-2310(S) (E); test: MIC determination by in vitro antifungal assay; assay type: cell-based; conditions: Candida albicans, 48 h
[15] = test system: C. albicans ATCC MYA-1237(R) (F); test: MIC determination by in vitro antifungal assay; assay type: cell-based; conditions: Candida albicans, 48 h, read-out: MIC (MIC-0)
[16] = test system: Aspergillus terreus ATCC MYA-3633 (M); test: MIC determination against filamentous fungi; assay type: cell-based; conditions: 48 h, read-out: MIC (MIC-0)
[17] = test system: C. albicans, non-albicans Candida, and Aspergillus strains; test: Antifungal activity over the panel of 13 fungal strains; assay type: cell-based; conditions: read-out: antifungal activity class based on MIC values

Row | SMILES | MIC [1] [µg/mL] | MIC [2] [µg/mL] | hemolysis at 60 min, 7.8 µg/mL (Hemolytic activity assay) [%] | toxicity to mammalian cells (in words) (HEK-293) | toxicity to mammalian cells (in words) (A549) | toxicity to mammalian cells (in words) (BEAS-2B) | increase in MIC in biofilms (SMIC50 and SMIC80 versus MIC in liquid cultures) [5] | MIC ([6]; read-out: MIC (MIC-0)) [µg/mL] | MIC ([7]; read-out: MIC (MIC-0)) [µg/mL] | MIC [8] [µg/mL] | MIC [9] [µg/mL] | propidium iodide (PI) dye uptake by fungal cells [12] | MIC ([13]; read-out: MIC (MIC-0)) [µg/mL] | MIC ([14]; read-out: MIC (MIC-0)) [µg/mL] | MIC [15] [µg/mL] | MIC [16] [µg/mL] | further results
1 | CCCCCCCCCCCCN1CCNCC1 [Compound 7] | 1.95 (≈ 7.66 µM) | 1.95 (≈ 7.66 µM) | 52 | toxic | toxic | toxic | 1–4 fold |  |  |  |  |  |  |  |  |  | MIC [3]: 1.95 µg/mL (≈ 7.66 µM); MIC [4]: 1.95 µg/mL (≈ 7.66 µM)
2 | CCCCCCCCCCN1CCN(CC(O)(Cn2cncn2)c2ccc(F)cc2F)CC1 (centres unmarked) [Compound 20, 2-(2,4-Difluorophenyl)-1-(1H-1,2,4-triazol-1-yl)-3-(4-decylpiperazine)propan-2-ol] |  |  |  | some toxicity | no toxicity at up to 7.8 µg/mL | some toxicity | 4–16 fold | 3.9 (≈ 8.41 µM) | 3.9 (≈ 8.41 µM) | 3.9 (≈ 8.41 µM) | 0.24 (≈ 0.518 µM) | neither compound 20 nor 26 (at 4 × MIC) induced cellular uptake of PI dye |  |  |  |  | antifungal activity in the presence of FBS (in words) [3]: retained their full antifungal activity; fungistatic or fungicidal activity (time-kill) [10]: fungicidal; fungistatic or fungicidal activity (time-kill) [11]: fungistatic
3 | CCCCCCCCCCCCCCOC[C@H]1O[C@H](O[C@@H]2[C@@H](O)[C@H](O[C@H]3O[C@H](CN)[C@@H](O)[C@H](O)[C@H]3N)[C@@H](N)C[C@H]2N)[C@H](O)[C@@H](N)[C@@H]1O [KANB (C14), reference compound] |  |  |  |  |  |  |  |  |  |  |  | significantly increased PI dye uptake |  |  |  |  | 
4 | OC(Cn1cncn1)(Cn1cncn1)c1ccc(F)cc1F [FLC, fluconazole, reference compound] |  |  |  |  |  |  |  |  |  |  |  | did not allow for PI uptake |  |  |  |  | MIC ([6]; read-out: MIC (MIC-2)): > 125 µg/mL; MIC ([13]; read-out: MIC (MIC-2)): 15.6 µg/mL (≈ 50.9 µM); MIC ([7]; read-out: MIC (MIC-2)): > 125 µg/mL; MIC ([14]; read-out: MIC (MIC-2)): > 125 µg/mL
5 | CCCCCCCCCCCCN1CCN(CC(O)(Cn2cncn2)c2ccc(Cl)cc2Cl)CC1 (centres unmarked) [Compound 26, 2-(2,4-Dichlorophenyl)-1-(1H-1,2,4-triazol-1-yl)-3-(4-dodecylpiperazine)propan-2-ol] |  |  | 85 |  |  |  | 2–4 fold | 7.8 (≈ 14.9 µM) |  |  |  | neither compound 20 nor 26 (at 4 × MIC) induced cellular uptake of PI dye |  |  |  |  | antifungal activity in the presence of FBS (in words) [3]: retained their full antifungal activity
6 | CN1CCN(CC(O)(Cn2cncn2)c2ccc(F)cc2F)CC1 (centres unmarked) [Compound 16] | 7.8 (≈ 23.1 µM) | 0.975 (≈ 2.89 µM) |  |  |  |  |  | 31.3 (≈ 92.8 µM) | 31.3 (≈ 92.8 µM) | 31.3 (≈ 92.8 µM) | 31.3 (≈ 92.8 µM) |  | 7.8 (≈ 23.1 µM) | 7.8 (≈ 23.1 µM) | 31.3 (≈ 92.8 µM) | 31.3 (≈ 92.8 µM) | hemolysis at 60 min, 62.5 µg/mL (Hemolytic activity assay): < 10%
7 | CCCCCCCCN1CCN(CC(O)(Cn2cncn2)c2ccc(F)cc2F)CC1 (centres unmarked) [Compound 18, 2-(2,4-Difluorophenyl)-1-(1H-1,2,4-triazol-1-yl)-3-(4-octylpiperazine)propan-2-ol] | 3.9 (≈ 8.95 µM) | 3.9 (≈ 8.95 µM) |  | some toxicity | nontoxic to A549 at up to 15.5 µg/mL | some toxicity |  | 31.3 (≈ 71.9 µM) | 15.6 (≈ 35.8 µM) | 0.975 to 31.3 (≈ 2.24 to 71.9 µM) | 1.95 (≈ 4.48 µM) |  | 31.3 (≈ 71.9 µM) | > 31.3 | 31.3 (≈ 71.9 µM) | 3.9 (≈ 8.95 µM) | hemolysis at 60 min, 62.5 µg/mL (Hemolytic activity assay): < 10%
8 | CCCCCCCCCCCCCCN1CCN(CC(O)(Cn2cncn2)c2ccc(F)cc2F)CC1 (centres unmarked) [Compound 24, 2-(2,4-Difluorophenyl)-1-(1H-1,2,4-triazol-1-yl)-3-(4-tetradecylpiperazine)propan-2-ol] | 1.95 (≈ 3.75 µM) | 1.95 (≈ 3.75 µM) | > 50 |  |  |  |  | 31.3 (≈ 60.2 µM) | 1.95 (≈ 3.75 µM) | 1.95 (≈ 3.75 µM) | 0.48 (≈ 0.924 µM) |  | 7.8 (≈ 15 µM) | 3.9 (≈ 7.5 µM) | 3.9 (≈ 7.5 µM) | 0.975 (≈ 1.88 µM) | 
9 | CCCCCCCCCCCCCCN1CCNCC1 [Compound 9, 1-Tetradecyl Piperazine] | 0.975 (≈ 3.45 µM) | 0.975 (≈ 3.45 µM) | 93 | toxic | toxic | toxic | 16–64 fold | 0.975 (≈ 3.45 µM) | 1.95 (≈ 6.9 µM) | 1.95 (≈ 6.9 µM) | 0.975 (≈ 3.45 µM) |  | 0.975 (≈ 3.45 µM) | 0.975 (≈ 3.45 µM) | 1.95 (≈ 6.9 µM) | 0.975 (≈ 3.45 µM) | MIC [3]: 0.975 µg/mL (≈ 3.45 µM); MIC [4]: 0.975 µg/mL (≈ 3.45 µM); MIC [17]: 0.015 to 1.95 µg/mL (≈ 0.0531 to 6.9 µM)
10 | CCCCCCCCCCN1CCN(CC(O)(Cn2cncn2)c2ccc(Cl)cc2Cl)CC1 (centres unmarked) [Compound 25, 2-(2,4-Dichlorophenyl)-1-(1H-1,2,4-triazol-1-yl)-3-(4-decylpiperazine)propan-2-ol] |  |  | 22 |  |  |  | 1–2 fold |  |  | 7.8 (≈ 15.7 µM) |  |  | 7.8 (≈ 15.7 µM) | 7.8 (≈ 15.7 µM) | 7.8 (≈ 15.7 µM) |  | antifungal activity in the presence of FBS (in words) [3]: retained their full antifungal activity
11 | C[C@@H]1[C@H](O)[C@@H](C)/C=C/C=C/C=C/C=C/C=C/C=C/C=C/[C@H](O[C@@H]2O[C@H](C)[C@@H](O)[C@H](N)[C@@H]2O)C[C@@H]2O[C@](O)(C[C@@H](O)C[C@@H](O)[C@H](O)CC[C@@H](O)C[C@@H](O)CC(=O)O[C@H]1C)C[C@H](O)[C@H]2C(=O)O [AmB, amphotericin B, reference compound] | 3.9 (≈ 4.22 µM) | 3.9 (≈ 4.22 µM) |  |  |  |  |  | 3.9 (≈ 4.22 µM) | 0.975 (≈ 1.06 µM) | 3.9 (≈ 4.22 µM) |  |  |  |  |  | 3.9 (≈ 4.22 µM) | MIC [3]: 3.9 µg/mL (≈ 4.22 µM); MIC [4]: 3.9 µg/mL (≈ 4.22 µM)
